Measurements: patent publication US20100069326A1, “Combination Therapies to Treat Cardio- and Cerebro-Vascular Disorders” (priority 2008, published 2010)
Read-outs that look alike come from different tables or passages of the source.

Columns and labels:
[1] = tested on: rat middle cerebral artery occlusion (MCAO) model of stroke; conditions: cited from earlier work; for reducing infarct size (in words): dose of 30 mg/kg, triflusal versus aspirin
[2] = tested on: Male Wistar rats with unilateral MCAO (cerebral ischemia); assay: Rat stroke model (permanent MCA occlusion), infarct volume assessment; format: in vivo; conditions: triflusal 30 mg/kg alone, 3 days after unilateral MCAO; for Infarct volume: three days, mean±SEM
Experimental: Male Wistar rats (265-360 g) were randomly divided into four treatment groups (n=5-9 for each group). Prior to and following surgery rats were housed in single cages (12/12 h light/dark cycle) and were fed at libitum. Prior to surgery, all rats were anaesthetized with a single dose of sodium pentobarbital (60 mg/kg ip) and placed in a David Kopf stereotaxic apparatus. Rectal temperatures were monitored and maintained constant at 37° C. by a heating pad while the rats were under anesthesia. The right MCA was exposed. […] Removal of a portion of the bone and exposure and ligation of the MCA was done with the aid of an operating stereomicroscope. Immediately following surgery, rats received one of the following treatments: 30 mg/kg triflusal or 30 mg/kg triflusal and 200 mg/kg dipyridamole or 10 mg/kg triflusal and 200 mg/kg dipyridamole or vehicle only for next three days. Three days after surgery, all animals were euthanized via pentobarbital overdose and perfused transaortically first with saline which was immediately followed by a low perfusion for about 1 h with 2% solution of triphenyl-tetrazolium chloride (TTC) that is followed by 4% formaldehyde (pH 7.4). The brains were removed and coronal sections (1 mm) were cut for infarct measurement. Investigator was blind to the sample treatment. Serial brain sections were examined and the areas of infarcted tissue were measured (SigmaScan […].0, SPSS Inc., Chicago Ill., USA). In addition, the hemispheric areas of each tissue section were measured to account for any brain swelling that might have occurred following cerebral ischemia. The volume of the infarct was calculated in mm^3 by integrating the infarct sizes for each of the tissue sections that contained infarcted tissue. The 1 mm sections were photographed using a Nikon digital camera. Results are expressed as mean±SEM of each measure. The volumes of the infarcts for each of the groups were compared by Student's unpaired two-tailed t tests. Significance was set at p≦0.05. Correlations between parameters were tested by linear regression analysis

[3] = tested on: cAMP phosphodiesterase; conditions: compared with aspirin; cited from earlier work

## CC(=O)Oc1ccccc1C(=O)O [aspirin]
[1]
  reducing infarct size (in words): equally effective

## CC(=O)Oc1cc(C(F)(F)F)ccc1C(=O)O [Triflusal, 2-acetoxy-4-trifluoromethylbenzoic acid]
[2]
  Infarct volume: 73.59 ± 7.0 mm^3
[2]; listed as triflusal
  Infarct volume: 73.59±7.0 mm^3
[2]; vs vehicle
  Infarct reduction: 30.72 ± 6.6%
[1]
  reducing infarct size (in words): equally effective
[1]; triflusal 10 mg/kg/day, not significant neuroprotection
  infarct reduction in the MCAO model: 12.56%
[1]; triflusal 30 mg/kg/day, significant neuroprotection
  infarct reduction in the MCAO model: 43.95%
[3]
  potency as inhibitor of cAMP phosphodiesterase relative to aspirin: five times more potent
